Assay results published in ChEMBL document CHEMBL6177931, “Exploring diverse frontiers: Advancements of bioactive 4-aminoquinoline-based molecular hybrids in targeted therapeutics and beyond” (Eur J Med Chem, 2024).
≈ marks a conversion by molar mass, not a printed value.

Assays:
Huh-7 = assay: Antiproliferative activity against human Huh-7 cells assessed as reduction in cell proliferation incubated for 24 hrs by MTT assay; format: functional, cell-based; conditions: Huh-7, 24 h
SMMC-7721 = assay: Antiproliferative activity against human SMMC-7721 cells assessed as reduction in cell proliferation incubated for 24 hrs by MTT assay; format: functional, cell-based; conditions: SMMC-7721, 24 h
HepG2 [1] = assay: Antiproliferative activity against human HepG2 cells assessed as reduction in cell proliferation incubated for 24 hrs by MTT assay; format: functional, cell-based; conditions: HepG2, 24 h
[2] = tested on: Mycobacterium tuberculosis; assay: Antitubercular activity against Mycobacterium tuberculosis H37Rv assessed as inhibition of visible bacterial growth incubated for 7 days by broth microdilution method; format: functional; conditions: 168 h, time 7 day
HepG2 [3] = assay: Cytotoxicity against human HepG2 cells assessed as cell viability incubated for 24 hrs by MTT assay relative to control; format: functional
Alternaria alternata = assay: Antifungal activity against Alternaria alternata incubated for 72 hrs by mycelium growth rate method; format: functional, organism-based
Pyricularia grisea = assay: Antifungal activity against Pyricularia grisea incubated for 72 hrs by mycelium growth rate method; format: functional, organism-based
Curvularia lunata = assay: Antifungal activity against Curvularia lunata incubated for 72 hrs by mycelium growth rate method; format: functional, organism-based
[4] = Selectivity index, ratio of IC50 for cytotoxicity against African green monkey Vero cells to IC50 for antiplasmodial activity against D-sorbitol synchronized chloroquine-resistant Plasmodium falciparum W2; format: toxicity, cell-based; conditions: read-out: Ratio IC50
[5] = molecular target: Cholinesterases; ACHE & BCHE (Homo sapiens) (UniProt P06276+P22303); assay: Selectivity ratio of IC50 for inhibition of human BchE to IC50 for inhibition of recombinant human AchE; format: protein assay
Cholinesterases; ACHE & BCHE (Homo sapiens), sequence (P06276 whole entry, looked up): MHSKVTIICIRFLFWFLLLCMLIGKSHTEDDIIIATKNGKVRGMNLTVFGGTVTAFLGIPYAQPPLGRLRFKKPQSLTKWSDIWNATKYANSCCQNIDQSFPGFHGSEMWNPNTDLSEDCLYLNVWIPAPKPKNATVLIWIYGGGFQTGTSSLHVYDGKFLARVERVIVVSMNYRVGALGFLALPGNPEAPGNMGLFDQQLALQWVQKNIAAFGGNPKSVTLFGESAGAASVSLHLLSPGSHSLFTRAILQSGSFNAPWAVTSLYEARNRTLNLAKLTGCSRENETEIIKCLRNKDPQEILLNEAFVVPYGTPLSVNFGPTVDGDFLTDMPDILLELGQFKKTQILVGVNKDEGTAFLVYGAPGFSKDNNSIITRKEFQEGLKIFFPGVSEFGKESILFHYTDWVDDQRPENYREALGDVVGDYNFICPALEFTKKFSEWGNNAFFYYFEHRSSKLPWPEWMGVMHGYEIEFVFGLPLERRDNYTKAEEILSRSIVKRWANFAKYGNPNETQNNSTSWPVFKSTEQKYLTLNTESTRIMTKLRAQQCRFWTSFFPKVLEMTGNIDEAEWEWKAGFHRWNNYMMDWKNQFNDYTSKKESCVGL
Cholinesterases; ACHE & BCHE (Homo sapiens), sequence (P22303 whole entry, looked up): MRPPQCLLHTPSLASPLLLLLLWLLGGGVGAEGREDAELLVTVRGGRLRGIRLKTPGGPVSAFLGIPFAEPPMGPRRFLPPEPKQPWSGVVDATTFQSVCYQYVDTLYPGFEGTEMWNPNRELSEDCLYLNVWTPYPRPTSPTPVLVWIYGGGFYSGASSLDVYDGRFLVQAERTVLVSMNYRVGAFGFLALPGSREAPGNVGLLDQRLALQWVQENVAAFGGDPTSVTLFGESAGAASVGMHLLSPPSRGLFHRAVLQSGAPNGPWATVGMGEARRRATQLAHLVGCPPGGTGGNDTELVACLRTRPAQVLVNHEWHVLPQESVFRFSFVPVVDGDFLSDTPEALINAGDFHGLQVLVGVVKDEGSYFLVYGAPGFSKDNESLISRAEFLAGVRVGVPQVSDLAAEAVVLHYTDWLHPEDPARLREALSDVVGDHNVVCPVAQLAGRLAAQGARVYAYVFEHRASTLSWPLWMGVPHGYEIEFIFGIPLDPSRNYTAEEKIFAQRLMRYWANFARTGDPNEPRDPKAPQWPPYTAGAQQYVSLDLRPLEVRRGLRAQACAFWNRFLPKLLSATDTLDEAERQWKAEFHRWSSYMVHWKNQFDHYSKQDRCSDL

MDA-MB-468 = assay: Growth inhibition of human MDA-MB-468 cells incubated for 48 hrs by SRB assay; format: functional
[6] = Growth inhibition of human MCF-10A cells incubated for 48 hrs by SRB assay; format: toxicity, cell-based
[7] = Growth inhibition of human 184B5 cells incubated for 48 hrs by SRB assay; format: toxicity, cell-based
MCF7 [8] = assay: Growth inhibition of human MCF7 cells incubated for 48 hrs by SRB assay; format: functional
MDA-MB-231 = assay: Growth inhibition of human MDA-MB-231 cells incubated for 48 hrs by SRB assay; format: functional
Acetylcholinesterase = Acetylcholinesterase (Homo sapiens, UniProt P22303); assay: Inhibition of AChE (unknown origin)
Acetylcholinesterase, sequence (P22303 whole entry): as the sequence (P22303 whole entry, looked up) above

Plasmodium falciparum = assay: Antiplasmodial activity against chloroquine sensitive Plasmodium falciparum NF54 incubated for 48 hrs by lactate dehydrogenase assay; format: functional, organism-based; conditions: NF54, Erythrocyte
MCF7 [9] = assay: Anticancer activity against human MCF7 cells incubated for 48 hrs by MTT assay; format: functional, cell-based; conditions: MCF7, 48 h
HepG2 [10] = assay: Anticancer activity against human HepG2 cells incubated for 48 hrs by MTT assay; format: functional, cell-based; conditions: HepG2, 48 h
HL-60 = assay: Anticancer activity against human HL-60 cells incubated for 48 hrs by MTT assay; format: functional, cell-based; conditions: HL-60, 48 h
HeLa [11] = assay: Anticancer activity against human HeLa cells incubated for 48 hrs by MTT assay; format: functional, cell-based
HeLa [12] = assay: Anticancer activity against human HeLa cells; format: functional, cell-based
MCF7 [13] = assay: Anticancer activity against human MCF7 cells; format: functional, cell-based
Leishmania amazonensis [14] = assay: Antileishmanial activity against Leishmania amazonensis promastigotes infected in mouse macrophages assessed as inhibition of parasite growth incubated for 72 hrs by giemsa staining based analysis; format: functional, organism-based; conditions: Macrophage
[15] = Selectivity index, ratio of CC50 for cytotoxicity against mouse macrophage to IC50 for antileishmanial activity against Leishmania amazonensis amastigotes infected in mouse macrophages assessed as inhibition of parasite growth; format: toxicity, cell-based; conditions: read-out: Ratio CC50/IC50
Leishmania amazonensis [16] = assay: Antileishmanial activity against Leishmania amazonensis amastigotes infected in mouse macrophages assessed as inhibition of parasite growth incubated for 72 hrs by giemsa staining based analysis; format: functional, organism-based; conditions: Macrophage

O=C(N/N=C/c1cc(O)ccc1O)c1ccc(Nc2ccnc3ccccc23)cc1
IC50 (Huh-7): 18.6 µM | IC50 (SMMC-7721): > 50 µM | IC50 (HepG2 [1]): 23.7 µM

CC(CNc1ccnc2cc(Cl)ccc12)NC(=O)Nc1nc2ccc(C(F)(F)F)cc2s1 (configuration not stated)
MIC [2]: 0.968 µM (≈ 0.465 µg/mL) | Activity (HepG2 [3]): 100%

Cl.Clc1ccc(Nc2cc(-c3ccccc3)nc3ccccc23)cc1
EC50 (Alternaria alternata): 15.6 µg/mL | EC50 (Pyricularia grisea): 14.4 µg/mL | EC50 (Curvularia lunata): 13.3 µg/mL

CCN(CC)c1ccc2c(c1)C(=O)N(CCC(=O)NCCNc1ccnc3cc(Cl)ccc13)C2=O
selectivity ratio [4]: > 2000

Clc1ccc2c(Nc3cccc4c(NCCC56CC7CC(CC(C7)C5)C6)cccc34)ccnc2c1
Ratio IC50 [5]: 5.8

O=[N+]([O-])c1ccc(S(=O)(=O)N2CCN(c3ccnc4cc(Cl)ccc34)CC2)c([N+](=O)[O-])c1
GI50 (MDA-MB-468): 0.7 µM | GI50 at 48 h [6]: 12.3 µM | GI50 at 48 h [7]: 9 µM | GI50 (MCF7 [8]): 2.3 µM | GI50 (MDA-MB-231): 3.4 µM

O=P(NCCCCCCCCCCCCNc1c2c(nc3ccccc13)CCCC2)(Oc1ccccc1)Oc1ccccc1
IC50 (Acetylcholinesterase): 24300 µM

O=C(/C=C/c1ccccc1Br)c1ccc(S(=O)(=O)NCCCNc2ccnc3cc(Cl)ccc23)cc1
IC50 (Plasmodium falciparum): 0.1 µM

O=C(/C=C/c1ccc(Cl)cc1)c1ccc(S(=O)(=O)NCCCNc2ccnc3cc(Cl)ccc23)cc1
IC50 (Plasmodium falciparum): 0.1 µM

S=C(NNc1ccnc2cc(Cl)ccc12)Nc1nc(Nc2ccc(Cl)cc2)nc(Nc2ccc(Cl)cc2)n1
IC50 (MCF7 [9]): 32.3 µM | IC50 (HepG2 [10]): 45.3 µM | IC50 (HL-60): 26.3 µM | IC50 (HeLa [11]): 32.4 µM

C[C@H]1[C@H](C)CC[C@]2(C(=O)OCCNc3ccnc4cc(Cl)ccc34)CC[C@]3(C)C(=CC[C@@H]4[C@@]5(C)CC[C@H](O)C(C)(C)[C@@H]5CC[C@]43C)[C@H]12
IC50 (HeLa [12]): 105 µg/mL (≈ 158 µM) | IC50 (MCF7 [13]): 48.2 µg/mL (≈ 72.8 µM)

CCCCCCCCCCn1cc(CNCCNc2ccnc3cc(Cl)ccc23)nn1
IC50 (Leishmania amazonensis [14]): 5.7 µM | selectivity ratio [15]: 16 | IC50 (Leishmania amazonensis [16]): 1.1 µM
